Source: ChEMBL document CHEMBL1201862, “PubChem BioAssay data set” (2004)
Calls of active or inactive are those of the source. Rule as the data show it: actives have a measured IC50 and inactives only a lower limit.

Molecular target: Envelope glycoprotein gp160 (Human immunodeficiency virus 1, UniProt Q6QLK5)
Experiment: cell-free HIV fusion peptide-binding blockers – biochemical, uHTS, fluorescence dequenching, […] (AID 1986)

Envelope glycoprotein gp160, sequence (Q6QLK5 whole entry, the tested form may be a part): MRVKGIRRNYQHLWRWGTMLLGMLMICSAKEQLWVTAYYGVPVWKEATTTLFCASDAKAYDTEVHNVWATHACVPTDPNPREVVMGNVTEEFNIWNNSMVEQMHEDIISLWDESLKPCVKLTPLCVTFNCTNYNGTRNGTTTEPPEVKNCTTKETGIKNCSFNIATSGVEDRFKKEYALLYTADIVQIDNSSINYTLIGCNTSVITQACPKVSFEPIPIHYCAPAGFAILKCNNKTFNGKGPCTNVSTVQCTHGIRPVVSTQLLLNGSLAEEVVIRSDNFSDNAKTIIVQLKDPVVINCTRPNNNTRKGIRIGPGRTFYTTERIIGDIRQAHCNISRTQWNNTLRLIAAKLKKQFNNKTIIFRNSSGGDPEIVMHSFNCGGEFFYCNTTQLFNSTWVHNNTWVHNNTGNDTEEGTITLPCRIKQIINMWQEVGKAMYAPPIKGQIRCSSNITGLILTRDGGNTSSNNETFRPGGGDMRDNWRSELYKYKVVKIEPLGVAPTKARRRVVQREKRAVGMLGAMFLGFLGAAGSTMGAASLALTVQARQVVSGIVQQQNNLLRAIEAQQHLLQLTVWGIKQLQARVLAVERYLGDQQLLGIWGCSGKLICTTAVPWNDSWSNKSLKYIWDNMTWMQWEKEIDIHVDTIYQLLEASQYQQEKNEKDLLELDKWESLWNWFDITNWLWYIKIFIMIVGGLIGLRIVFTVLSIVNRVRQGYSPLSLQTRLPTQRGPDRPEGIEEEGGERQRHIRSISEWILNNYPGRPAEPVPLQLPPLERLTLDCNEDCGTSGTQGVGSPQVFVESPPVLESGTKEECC

Row | Structure (SMILES) | IC50
1 | CS(=O)(=O)C1=NSC2=NC(=O)/C(=C\c3cccn3-c3ccc(Cl)cc3)C(=N)N21 | 18.5 µM (active)
2 | CC(C)CS(=O)(=O)C1=NSC2=NC(=O)/C(=C\c3ccc(OC(=O)c4ccco4)cc3)C(=N)N21 | 15.6 µM (active)
3 | CSc1ccc(C(c2c(C(=O)O)[nH]c3ccccc23)c2c(C(=O)O)[nH]c3ccccc23)cc1 | 8.99 µM (active)
4 | CCOc1ccc(CCNC(=O)c2ccc3c(=O)[nH]c4c(C(=O)NC(C)C)sc(=S)n4c3c2)cc1 | 62.5 µM (active)
5 | COc1cc([N+](=O)[O-])cc(/C=N/NC(=O)c2cc(-c3ccccc3)nc3ccccc23)c1O | 30.3 µM (active)
